Results from patent US20210277020A1, “HETEROCYCLIC COMPOUNDS AS MONOACYLGLYCEROL LIPASE INHIBITORS” (Hoffmann-La Roche Inc., priority 2018, published 2021).
pIC50: −log10 of the molar value.

Target: T1, MAGL (Homo sapiens, UniProt Q99685)
T1 sequence (Q99685 1-303): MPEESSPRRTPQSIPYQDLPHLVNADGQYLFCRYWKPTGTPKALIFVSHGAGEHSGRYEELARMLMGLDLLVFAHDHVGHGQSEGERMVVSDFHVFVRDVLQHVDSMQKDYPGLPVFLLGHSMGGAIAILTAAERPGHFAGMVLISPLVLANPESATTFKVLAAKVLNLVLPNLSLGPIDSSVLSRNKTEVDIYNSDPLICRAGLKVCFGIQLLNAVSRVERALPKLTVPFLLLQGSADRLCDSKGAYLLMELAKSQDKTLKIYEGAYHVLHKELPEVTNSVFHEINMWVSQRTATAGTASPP
Experiment: 2-AG assay: MAGL inhibition followed by hydrolysis of 2-arachidonoylglycerol to arachidonic acid, mass spectrometry
Format: biochemical
Settings: measured in 2-AG assay (footnote [a]); substrate 2-arachidonoylglycerol 8 μM, 30 min at RT
Source text: Alternatively, compounds were profiled for MAGL inhibitory activity by determining the enzymatic activity by following the hydrolysis of the natural substrate, 2-arachidonoylglycerol, resulting in arachidonic acid, which can be followed by mass spectrometry. This assay is hereinafter abbreviated “2-AG assay”.
Detection by mass spectrometry in the present 2-AG assay has the advantage over known optical assays that the natural enzyme substrate, 2-arachidonoylglycerol, can be used instead of structurally unrelated compounds needed for optical readouts (such as 4-NPA). It thereby delivers more relevant data for activity determination, reduces false positives and generally adds to data quality. In addition, this assay reduces the analysis time from about 10 minutes per sample with standard methods to under 10 seconds per sample. This allows for using the present 2-AG assay in a method for high throughput screening of compounds for their MAGL inhibitory activity.
The 2-AG assay was carried out in 384 well assay plates (PP, Greiner Cat #784201) in a total volume of 20 μL. Compound dilutions were made in 100% DMSO (VWR Chemicals 23500.297) in a polypropylene plate in 3-fold dilution steps to give a final concentration range in the assay from 12.5 μM to […]. 0.25 μL compound dilutions (100% DMSO) were added to 9 μL MAGL in assay buffer (50 mM TRIS (GIBCO, 15567-027), 1 mM EDTA (Fluka, 03690-100 mL), 0.01% (v/v) Tween. After shaking, the plate was incubated for 15 min at RT. To start the reaction, 10 μL 2-arachidonoylglycerol in assay buffer was added. The final concentrations in the assay was […] and 8 μM 2-arachidonoylglyerol. After shaking and 30 min incubation at RT, the reaction was quenched by the addition of 40 μL of acetonitrile containing 4 μM of d8-arachidonic acid. The amount of arachidonic acid was traced by an online SPE system (Agilent Rapidfire) coupled to a triple quadrupole mass spectrometer (Agilent 6460). A C18 SPE cartridge (G9205A) was used in an acetonitrile/water liquid setup. The mass spectrometer was operated in negative electrospray mode following the mass transitions 303.1→259.1 for arachidonic acid and 311.1→267.0 for d8-arachidonic acid. The activity of the compounds was calculated based on the ratio of intensities [arachidonic acid/d8-arachidonic acid].
In a preferred embodiment, the method for determining the MAGL inhibitory activity of a test compound according to the invention, comprises: • (i) providing a solution of a test compound; • (ii) adding the solution of step (i) to a solution of MAGL; • (iii) shaking the mixture obtained from step (ii); • (iv) incubating the mixture obtained from step (iii); • (v) adding a solution of 2-arachidonoylglycerol; • (vi) incubating the mixture obtained from step (v); • (vii) adding a solution of d8-arachidonic acid; and • (viii) determining the ratio of intensities arachidonic acid/d8-arachidonic acid using a mass spectrometer.

| Compound | pIC50 |
| --- | --- |
| O=C1CO[C@H]2CCN(C(=O)N3CC(C#Cc4ccccc4OC(F)(F)F)C3)C[C@H]2N1 [Example 170, (4aR,8aS)-6-[3-[2-[2-(Trifluoromethoxy)phenyl]ethynyl]azetidine-1-carbonyl]-4,4a,5,7,8,8a-hexahydropyrido[4,3-b][1,4]oxazin-3-one] | 8.40 |
| O=C1CO[C@H]2CCN(C(=O)N3CC(C#Cc4ccccc4Cl)C3)C[C@H]2N1 [Example 133] | 8.05 |
| Cc1cccc(C)c1C#CC1CCN(C(=O)N2CC[C@@H]3OCC(=O)N[C@@H]3C2)CC1 [Example 195, (4aR,8aS)-6-(4-((2,6-Dimethylphenyl)ethynyl)piperidine-1-carbonyl)hexahydro-2H-pyrido[4,3-b][1,4]oxazin-3(4H)-one] | 7.60 |
| O=C1CO[C@H]2CCN(C(=O)N3CC(CNC(c4ccc(C(F)(F)F)cc4)C(F)(F)F)C3)C[C@H]2N1 (stereo partly drawn) [Example 41, (4aR,8aS)-6-[3-[[[2,2,2-Trifluoro-1-[4-(trifluoromethyl)phenyl]ethyl]amino]methyl]azetidine-1-carbonyl]hexahydro-2H-pyrido[4,3-b][1,4]oxazin-3(4H)-one] | 7.62 |
| O=C1CO[C@H]2CCN(C(=O)N3CCC(C#Cc4ccc(Cl)cc4Cl)CC3)C[C@H]2N1 [Example 131, (+)-(4aR,8aS)-6-[4-[2-(2,4-Dichlorophenyl)ethynyl]piperidine-1carbonyl]-4,4a,5,7,8,8a-hexahydropyrido[4,3-b][1,4]oxazin-3-one] | 7.66 |
| O=C1CO[C@H]2CCN(C(=O)N3CC(C#Cc4ccc(C(F)(F)F)c(Cl)c4)C3)C[C@H]2N1 [Example 160, (4aR,8aS)-6-(3-((3-Chloro-4-(trifluoromethyl)phenyl)ethynyl)azetidine-1-carbonyl)hexahydro-2H-pyrido[4,3-b][1,4]oxazin-3(4H)-one] | 9.00 |
| O=C1CO[C@H]2CCN(C(=O)N3CC(S(=O)(=O)c4ccc(C(F)(F)F)cc4Cl)C3)C[C@H]2N1 [Example 144, (4aR,8aS)-6-[3-[2-Chloro-4-(trifluoromethyl)phenyl]sulfonylazetidine-1-carbonyl]-4,4a,5,7,8,8a-hexahydropyrido[4,3-b][1,4]oxazin-3-one] | 5.58 |
| O=C1CO[C@H]2CCN(C(=O)N3CC(C#Cc4ccc(C5CC5)cc4)C3)C[C@H]2N1 [Example 179, (4aR,8aS)-6-[3-[2-(4-Cyclopropylphenyl)ethynyl]azetidine-1-carbonyl]-4,4a,5,7,8,8a-hexahydropyrido[4,3-b][1,4]oxazin-3-one] | 8.22 |
| O=C1CO[C@H]2CCN(C(=O)N3CC(C#Cc4ccc(C(F)(F)F)cc4)C3)C[C@H]2N1 [Example 167, (4aR,8aS)-6-[3-[2-[4-(Trifluoromethyl)phenyl]ethynyl]azetidine-1-carbonyl]-4,4a,5,7,8,8a-hexahydropyrido[4,3-b][1,4]oxazin-3-one] | 8.00 |
| N#Cc1cccc(Cl)c1C#CC1CN(C(=O)N2CC[C@@H]3OCC(=O)N[C@@H]3C2)C1 [Example 176, 2-[2-[1-[(4aR,8aS)-3-oxo-4,4a,5,7,8,8a-Hexahydropyrido[4,3-b][1,4]oxazine-6-carbonyl]azetidin-3-yl]ethynyl]-3-chlorobenzonitrile] | 7.30 |
| O=C1CO[C@H]2CCN(C(=O)N3CC([S+]([O-])c4ccc(C(F)(F)F)cc4Cl)C3)C[C@H]2N1 (single isomer, unassigned) [Example 146] | 5.57 |
| COc1cccc(C#CC2CN(C(=O)N3CC[C@@H]4OCC(=O)N[C@@H]4C3)C2)c1C [Example 183, (4aR,8aS)-6-[3-[2-(3-Methoxy-2-methylphenyl)ethynyl]azetidine-1-carbonyl]-4,4a,5,7,8,8a-hexahydropyrido[4,3-b][1,4]oxazin-3-one] | 7.96 |
| CN(C(=O)Cc1cc(C(F)(F)F)ccc1Cl)C1CCN(C(=O)N2CC[C@@H]3OCC(=O)N[C@@H]3C2)CC1 [Example 84, N-[1-[(4aR,8aS)-3-oxo-4,4a,5,7,8,8a-hexahydropyrido[4,3-b][1,4]oxazine-6-carbonyl]piperidin-4-yl]-2-[2-chloro-5-(trifluoromethyl)phenyl]-N-methylacetamide] | 5.94 |
| COCc1ccccc1C#CC1CN(C(=O)N2CC[C@@H]3OCC(=O)N[C@@H]3C2)C1 [Example 191, (4aR,8aS)-6-[3-[2-[2-(Methoxymethyl)phenyl]ethynyl]azetidine-1-carbonyl]-4,4a,5,7,8,8a-hexahydropyrido[4,3-b][1,4]oxazin-3-one] | 7.09 |
| O=C1CO[C@H]2CCN(C(=O)N3CCC(C#Cc4cccc(Cl)c4)CC3)C[C@H]2N1 [Example 129, (+)-(4aR,8aS)-6-[4-[2-(3-Chlorophenyl)ethynyl]piperidine-1-carbonyl]-4,4a,5,7,8,8a-hexahydropyrido[4,3-b][1,4]oxazin-3-one] | 6.99 |
| O=C1CO[C@H]2CCN(C(=O)N3CC([S+]([O-])c4ccc(C(F)(F)F)cc4Cl)C3)C[C@H]2N1 (single isomer, unassigned) [Example 147] | 4.90 |
| O=C1CO[C@H]2CCN(C(=O)N3CC(C[S+]([O-])c4ccc(C(F)(F)F)cc4Cl)C3)C[C@H]2N1 (single isomer, unassigned) [Example 155] | 5.70 |
| Cc1cccc(C)c1C#CC1CN(C(=O)N2CC[C@@H]3OCC(=O)N[C@@H]3C2)C1 [Example 169, (4aR,8aS)-6-[3-[2-(2,6-Dimethylphenyl)ethynyl]azetidine-1-carbonyl]-4,4a,5,7,8,8a-hexahydropyrido[4,3-b][1,4]oxazin-3-one] | 8.40 |
| O=C1CO[C@H]2CCN(C(=O)N3CCC(O)(C#Cc4ccccc4Cl)CC3)C[C@H]2N1 [Example 132, (+)-(4aR,8aS)-6-[4-[2-(2-Chlorophenyl)ethynyl]-4-hydroxypiperidine-1-carbonyl]-4,4a,5,7,8,8a-hexahydropyrido[4,3-b][1,4]oxazin-3-one] | 6.05 |
| O=C1CO[C@H]2CCN(C(=O)N3CC(C#Cc4csc(Cl)c4)C3)C[C@H]2N1 [Example 188, (4aR,8aS)-6-[3-[2-(5-Chlorothiophen-3-yl)ethynyl]azetidine-1-carbonyl]-4,4a,5,7,8,8a-hexahydropyrido[4,3-b][1,4]oxazin-3-one] | 7.89 |
| O=C1CO[C@H]2CCN(C(=O)N3CCC(C#Cc4ccccc4C(F)(F)F)CC3)C[C@H]2N1 [Example 192, (4aR,8aS)-6-(4-((2-(Trifluoromethyl)phenyl)ethynyl)piperidine-1-carbonyl)hexahydro-2H-pyrido[4,3-b][1,4]oxazin-3(4H)-one] | 7.74 |
| O=C1CO[C@H]2CCN(C(=O)N3CC(C[S+]([O-])c4ccc(C(F)(F)F)cc4Cl)C3)C[C@H]2N1 (mixture of isomers) [Example 153, (4aR,8aS)-6-[3-[[2-Chloro-4-(trifluoromethyl)phenyl]sulfinylmethyl]azetidine-1-carbonyl]-4,4a,5,7,8,8a-hexahydropyrido[4,3-b][1,4]oxazin-3-one] | 6.50 |
| O=C1CO[C@H]2CCN(C(=O)N3CC(C[S+]([O-])c4ccc(C(F)(F)F)cc4Cl)C3)C[C@H]2N1 (single isomer, unassigned) [Example 154] | 6.51 |
| O=C1CO[C@H]2CCN(C(=O)N3CC(C#Cc4ccc(Cl)cc4C(F)(F)F)C3)C[C@H]2N1 [Example 164, (4aR,8aS)-6-[3-[2-[4-Chloro-2-(trifluoromethyl)phenyl]ethynyl]azetidine-1-carbonyl]-4,4a,5,7,8,8a-hexahydropyrido[4,3-b][1,4]oxazin-3-one] | 8.52 |
